The source of these data is patent US7910626B2, “Use of S1P receptor agonists in heart diseases” (Novartis AG, priority 2002, dated 2011).

One series concerns chronic heart failure. Briefly: Chronic heart failure in rabbits after large myocardial infarction. It is filed as in vivo. As to conditions: heart failure induced by large myocardial infarction, i.v. at a dose of from 0.1 to 10 mg/kg. As for the experimental part: The effect of a S1P receptor agonist, e.g. a compound of formula I on chronic heart failure is tested in rabbits where heart failure is induced as a consequence of a large myocardial infarction (R P. Hof et al. J. Cardiovasc. Pharmacol., 1991, 18,361-368). The changes of atrial natriuretic factor or baroflex sensitivity are a reliable indicator of the status of the heart failure in this animal model.

The nature of series [1]: Acute toxicity p.o. in monkeys. As to conditions: monkey, in vivo, po. As for the experimental part:
(§1) S1P receptor agonists are well tolerated at dosages required for use in accordance with the present invention. For example, FTY720 has an acute LD50 >10 mg/kg p.o. in rats and monkeys.

A short description of series [2]: Acute toxicity p.o. in rats. As to conditions: rat, in vivo, po. As for the experimental part:
as §1

Molecules are shown by their SMILES.

As to `CCCCCCCCc1ccc(CCC(N)(CO)CO)cc1` [Compound A, 2-amino-2-[2-(4-octylphenyl)ethyl]propane-1,3-diol], the “effect on the heart failure” value in the series with chronic heart failure is on record as “beneficial effect”. Further, the median lethal dose (LD50) in series [1] and in series [2] was above 10 mg/kg in each case.
